Read-outs that look alike come from different tables or passages of the source.
Tests used:
[1] = system: MCF-7 cells (breast adenocarcinoma); conditions: cited from earlier work
[2] = system: HTB-54 cells (lung adenocarcinoma); design: method as in PMID 22397496; conditions: reference drug, literature value; cited from earlier work
[3] = system: HT-29 cells (colon carcinoma); design: method as in PMID 32801055; conditions: reference drug, literature value; cited from earlier work
HCT-116 cells (colon) = assay: MTT cell viability assay, HCT-116; type: cell-based; conditions: 48 h, MTT, mean ± SD, read-out: IC50 HCT-116 (colon)
Protocol: (§1) Cell lines were purchased from the American Type Culture Collection (ATCC). MCF-7, HTB-54, BEAS-2B and 184B5 cell lines were grown in RPMI 1640 medium (Gibco) supplemented with 10% fetal bovine serum (FBS; Gibco), 100 units/mL penicillin, and […] streptomycin (Gibco). HT-29 and HCT-116 cell lines was cultured in McCoy’s 5A (Gibco), 10% FBS, 100 units/mL penicillin, and 100 μg/mL streptomycin. Cells were maintained at 37 °C and 5% CO2. Culture medium was replaced every three days.
(§2) A cell viability assay of each compound was carried out using an MTT assay. Each selenourea was dissolved in dimethyl sulfoxide (DMSO) at a concentration of 0.01 M. Serial dilutions were prepared with non-supplemented culture medium. Cytotoxic activity of each selenourea was determined at two different concentrations (10 and 50 µM) in MCF-7, HTB-54, and HT-29 cells. In addition, selected compounds were tested at seven different concentrations (0.1, 1, 5, 10, 25, 50, 100 µM) on MCF-7, HT-29, HCT-116, HTB-54, 184B5, and BEAS-2B cells. The number of passages before defrosting the cells was 3, and they were kept under culture up to a maximum of 15.
(§3) Briefly, 1 × 10^4 cells/well were grown in 96-well plates for 24 h. Then, these cells were incubated with either DMSO (negative control) at 5 µM or a different concentration of each tested selenourea for 48 h. A volume of 20 µL of MTT was added 150 min before the termination point to measure cellular viability. After this time, culture medium was removed. The resultant formazan crystals were dissolved in 50 µL of DMSO, and absorbance was measured at 570 nm. Results are expressed as IC50, the half maximal inhibitory concentration. This value was calculated using GraphPad Prism 7 software by nonlinear curve fitting. Furthermore, the selectivity index (SI) was calculated as the ratio of the IC50 values determined for the non-malignant and the tumoral cells (IC50 (184B5)/IC50 (MCF-7) or (IC50 (BEAS-2B)/IC50 (HTB-54). Data were obtained from at least three independent experiments performed in triplicates.

[4] = system: HTB-54 cells (lung adenocarcinoma); assay: MTT cell viability assay, HTB-54; type: cell-based, human; conditions: for IC50 / viability at 10 µM / viability at 50 µM: Homo sapiens, 48 h, MTT; for IC50: HTB-54, mean ± SD, read-out: IC50 HTB-54 (lung); for viability at 10 µM: HTB-54, 10 µM; for viability at 10 µM / viability at 50 µM: read-out: cell viability, percentage of live cells; for viability at 50 µM: HTB-54, 50 µM; for SI (selectivity index) lung: IC50 (BEAS-2B)/IC50 (HTB-54)
Protocol: as §1, §2, §3
(§4) The cytotoxic effects of synthesized compounds were evaluated against three human cancer cell lines: breast adenocarcinoma (MCF-7), lung adenocarcinoma (HTB-54), and colon carcinoma (HT-29), using a 3-[4,5-dimethylthiazol-2-yl]-2,5-diphenyltetrazolium bromide (MTT) assay. Firstly, the compounds were screened at two doses (50 and 10 µM) and after 48 h of treatment. The results are summarized in Figure 4 and are presented as percentages of growth inhibition related to control.

[5] = system: MCF-7, HTB-54, HT-29 and HCT-116 cancer cell lines; assay: MTT assay, panel of four cancer cell lines; type: cell-based; conditions: MCF-7, HTB-54, HT-29, HCT-116, read-out: IC50 against the four cancer cell lines tested (all the cell lines)
Protocol: as §2, §3
Those derivatives that reduced the growth of the cell lines below 50% at 10 µM in at least one cell line were selected for being evaluated at five concentrations between […] and 100 µM. Ten compounds (1d, 1e, 2a, 2d, 3a, 6a, 6b, 6c, 6d, and 6e) passed this threshold and four of them (1e, 6c, 6d and 6e) in all three cancer cell lines. The data are expressed as IC50 (mean ± SD) in a panel of four cancer cell lines (MCF-7, HTB-54, HT-29, and HCT-116), and are shown in Table 1. Cisplatin was used as a standard drug. […] Additionally, reported IC50 values of a well-known antitumor selenocompound, i.e., sodium selenite (Na2SeO3), were used as reference for comparision with the selected selenoureas.

[6] = system: MCF-7 cells (breast adenocarcinoma); assay: MTT cell viability assay, MCF-7; type: cell-based, human; conditions: for IC50 / viability at 10 µM / viability at 50 µM: Homo sapiens, MCF7, 48 h, MTT; for IC50: mean ± SD, read-out: IC50 MCF-7 (breast); for viability at 10 µM: MCF-7, 10 µM; for viability at 10 µM / viability at 50 µM: read-out: cell viability, percentage of live cells; for viability at 50 µM: MCF-7, 50 µM; for SI (selectivity index) breast: IC50 (184B5)/IC50 (MCF-7)
Protocol: as §1, §2, §3, §4

[7] = system: HT-29 cells (colon carcinoma); assay: MTT cell viability assay, HT-29; type: cell-based; conditions: Homo sapiens, 48 h, MTT; for IC50: HT-29, mean ± SD, read-out: IC50 HT-29 (colon); for viability at 10 µM: HT-29, 10 µM; for viability at 10 µM / viability at 50 µM: read-out: cell viability, percentage of live cells; for viability at 50 µM: HT-29, 50 µM
Protocol: as §1, §2, §3, §4

[8] = system: BEAS-2B cells (lung non-malignant derived cell line); assay: MTT cell viability assay, BEAS-2B; type: cell-based; conditions: Homo sapiens, 48 h, mean ± SD
Protocol: as §1, §2, §3

[9] = system: 184B5 cells (breast non-malignant derived cell line); assay: MTT cell viability assay, 184B5; type: cell-based; conditions: Homo sapiens, 184B5; 48 h, MTT, mean ± SD; read-out: IC50 184B5 (breast, non-malignant)
Protocol: as §1, §2, §3

[10] = DPPH radical scavenging assay; conditions: 0.03 mg/mL, time-point 0 min
Protocol: (§5) From all the methods available for the prediction of the antioxidant properties, DPPH^● and ABTS^●+ assays were chosen according to their simplicity, accessibility, and effectiveness for a fast prediction of radical scavenging activities in vitro. The radical scavenging capacity of the novel selenoureas was determined by DPPH^● and ABTS^●^+ assays. Measurements were recorded on a BioTeck PowerWave XS spectrophotometer (BioTeck Instruments, Winooski (VT), USA) and the data were collected using KCJunior software (BioTeck Instruments, Winooski (VT), USA).
A DPPH assay was performed, as described by Svinyarov. Stock solutions of 1 mg/mL were initially prepared for each selenourea in methanol and this solution was used for the preparation of the different concentrations employed in the assay. Ascorbic acid (Asc) was used as positive control due to the literature reports that this derivative is a potent antioxidant and radical scavenger. A volume of 100 µL from a previously prepared stock solution (preserved in dark and daily prepared) of DPPH (100 µM) in methanol were added to 100 µL of the methanolic selenoureas solutions prepared previously, and the antioxidant activity these compounds was assessed by its ability to decolorize DPPH● radical (purple color in methanol) to DPPHH (colorless). Thus, radical scavenging activity was estimated by the decrease in the absorbance at 517 nm. Determinations were recorded at different time-points. All the measurements were carried out in triplicate. Results are expressed as the percentage of the radicals scavenged, calculated using the following formula:(1) % DPPH radical scavenging=Acontrol − Asample/Acontrol × 100 where Acontrol refers to the absorbance of the negative control and Asample refers to the absorbance of the tested compounds. Results are expressed as percentage of DPPH radical scavenging ± SD.
In order to determine the radical scavenging of these newly synthesized selenourea derivatives, the DPPH assay was firstly employed. Measurements were performed at four different concentrations ranging from 0.0003 to 0.03 mg/mL, and collected at time-points between 0 min and 120 min (Figures S81–S100). Results are presented as the percentage of inhibition for DPPH radical scavenging activity.

[11] = ABTS radical scavenging assay; conditions: 0.003 mg/mL, 60 min
Protocol: as §5
As well as DPPH, ABTS radical scavenging assay is a colorimetric method. ABTS (2,2′-azino-bis(3-ethylbenzothiazoline-6-sulfonic acid) was dissolved in deionized water at 1 mg/mL and oxidized to ABTS^●+ with potassium persulfate (2.45 mM final concentration). This oxidation process is not instantaneous, and the reaction mixture was kept in the dark overnight at room temperature. After ABTS^●+ radical was generated, the ABTS^●+ solution was diluted with 50% ethanol until an absorbance of 0.70 ± 0.02 at 734 nm for measurements was achieved. Stock solution of 1 mg/mL in absolute ethanol was prepared for each selenourea, and different dilutions were prepared to reach the final concentration, when 20 µL of this solution were added to 180 µL of the diluted ABTS^●+. The absorbance at 734 nm was recorded using 50% ethanol as blank. Trolox and Asc were used as positive controls. All determinations were carried out in triplicate. Same time intervals as in the DPPH assay were also measured. The ability to scavenge ABTS^●+ was calculated using the following formula:(2) % ABTS radical scavenging=Acontrol − Asample/Acontrol × 100 where Acontrol refers to the absorbance of the negative control and Asample refers to the absorbance of the tested compounds. The results are expressed as percentage of ABTS radical scavenging ± SD.
In order to confirm the antioxidant activity of the selenoureas, we performed an additional ABTS (2,2′-azino-bis(3-ethylbenzothiazoline-6-sulfonic acid) radical scavenging assay. Following the results obtained in the DPPH assay, this experiment was performed at 0.03 and 0.003 mg/mL. Measurements were recorded after 0′, 6′ and 60′ of incubation with ABTS. For comparison purposes, Trolox and ascorbic acid were used as references. The remarkable results are summarized in Figure 3.

Row | Structure (SMILES) | IC50 [4] | viability at 10 µM [4] | viability at 50 µM [4] | SI (selectivity index) lung [4] | melting point | IC50 [5] | IC50 [6] | viability at 10 µM [6] | viability at 50 µM [6] | SI (selectivity index) breast [6] | IC50 [7] | viability at 10 µM [7] | viability at 50 µM [7] | IC50 [8] | IC50 [9] | DPPH radical scavenging kinetics [10] | IC50 (HCT-116 cells (colon); Homo sapiens, HCT-116) | ABTS radical scavenging activity compared with Trolox [11] | also measured
1 | N.N.[Cl][Pt][Cl] [Cisplatin] |  |  |  |  |  |  |  |  |  |  |  |  |  |  |  |  |  |  | IC50 ([1]; reference drug, literature value, read-out: IC50 MCF-7 (breast)): 15.2 ± 1.04 µM; IC50 [2]: 13.7 ± 0.83 µM; IC50 [3]: 14.2 ± 0.73 µM; IC50 (HCT-116 cells (colon)): 2.18 ± 1.58 µM
2 | N#Cc1ccc(NC(=[Se])NCc2ccco2)cc1 [Compound 1e] | 9.79 ± 0.07 µM | 35.7% | 9.3% | 0.61 | 128 °C | < 10 µM | 9.96 ± 1.45 µM | 48.8% | 23.4% | 0.81 | 5.89 ± 1.32 µM | 36.2% | 28.5% | 6.01 ± 0.94 µM | 8.09 ± 1.21 µM | reaching the maximum activity at time-point 0′ | 9.14 ± 1.14 µM |  | 
3 | Cc1ccc(NC(=[Se])NC23CC4CC(CC(C4)C2)C3)cc1 [Compound 6b] | 9.01 ± 2.6 µM | 44.2% | 26.1% | 0.83 | 169 °C | < 10 µM | 5.52 ± 1.61 µM | 40% | 9.2% | 2.21 | 5.67 ± 4.67 µM | 51.4% | 46.8% | 7.56 ± 0.19 µM | 12.2 ± 2.42 µM |  | 6.29 ± 0.76 µM | significant lower radical scavenging activity than Trolox | 
4 | Clc1ccc(NC(=[Se])NC23CC4CC(CC(C4)C2)C3)cc1 [Compound 6d, N´-adamantyl-N-(4-chlorophenyl)selenourea] | 6.56 ± 0.99 µM | 22.9% | 4.4% | 1.16 | 177 °C | < 10 µM | 7.19 ± 1.12 µM | 36.6% | 17.2% | 2.22 | 8.04 ± 2.17 µM | 45.9% | 23.7% | 7.59 ± 0.53 µM | 16 ± 2.74 µM |  | 6.95 ± 0.65 µM | significant lower radical scavenging activity than Trolox | 
5 | N#Cc1ccc(NC(=[Se])NC23CC4CC(CC(C4)C2)C3)cc1 [Compound 6e, N´-Adamanty-N-(4-cyanophenyl)selenourea] | 6.09 ± 0.75 µM | 34% | 0.3% | 0.39 |  | < 10 µM | 5.47 ± 3.91 µM | 44.4% | 5.7% | 1.41 | 4.18 ± 0.46 µM | 18.9% | 3.6% | 2.36 ± 0.39 µM | 7.69 ± 0.31 µM | reaching the maximum activity at time-point 0′ | 5.43 ± 0.86 µM |  | 
6 | O=[Se](O)O [sodium selenite] |  |  |  |  |  |  |  |  |  |  |  |  |  |  |  |  |  |  | IC50 ([1]; after 72 h of treatment, read-out: IC50 in MCF-7 cells): 17 µM
